Reference: patent publication US20220226348A1, “METHOD AND COMPOSITION FOR TREATMENT OF SKIN DISEASES ASSOCIATED WITH ACCELERATED CORNEODESMOSOMES DEGRADATION OR WEAKER CELL-CELL ADHESION” (ICHILOV TECH LTD, priority 2019, published 2022)

Tests used:
corneodesmosin = experiment: Corneodesmosin protein expression by immunoblotting, normalized to β-actin; type: cell-based; conditions: human primary keratinocytes, immunoblot
Source text: Using a high throughput screening of small molecule libraries, utilizing green fluorescent protein (GFP) base reporter system and western blot analysis for validation of the results, it has now been found, in accordance with the present invention, that betulinic acid (which is already used as topical treatment on human skin, and capable of penetrating into the skin and be active in the epidermis while showing excellent safty profile) is capable of boosting corneodesmosin biosynthesis, and when administered to keratinocytes, it increases corneodesmosin expression by more than 3-fold (FIGS. 1-2), and may thus be used as an inducer of corneodesmosin expression in patients suffering from skin diseases or disorders associated with accelerated corneodesmosomes degradation and/or weaker cell-cell adhesion.
Corneodesmosin protein levels were quantified and normalized to β-actin protein levels and presented as corneodesmosin fold expression relative to normal keratinocytes treated with DMSO. […] The other compounds shown in the figure are 5-aminolevulinic acid hydrochloride (5-ALA; #1), piperlongumine (#2), thiostrepton (#3), obatoclax mesylate (GX15-070; #5), BI 2536 (CAS No.: 755038-02-9; #6), PHA-665752 (CAS No.: 477575-56-7 (anhydrous; #7), YH239-EE (CAS No.: 1364488-67-4; #8), PF-562271 (CAS No.: 717907-75-0; #9), and BI-D1870 (CAS No.: 501437-28-1; #10).

CDSN = CDSN expression at the mRNA level in keratinocytes; type: cell-based

C=C(C)[C@@H]1CC[C@]2(C(=O)O)CC[C@]3(C)[C@H](CC[C@@H]4[C@@]5(C)CC[C@H](O)C(C)(C)[C@@H]5CC[C@]43C)[C@@H]12 [betulinic acid]
corneodesmosin fold expression relative to normal keratinocytes treated with DMSO (corneodesmosin): more than 3 fold
CDSN expression at the mRNA level relative to DMSO-treated normal keratinocytes (CDSN): 2 fold
